Where a SMILES comes first, the peptide text is derived from it. The star is where a group is joined. Cbz = O=C(OCc1ccccc1)*
Columns and labels:
Assay type in all cases: cell-based
E2F1 [1] = assay: E2F1 levels by qPCR and western blot; details: HCT116, 6 h
Description: FIGS. 11A-11B show the effect of p97 inhibitors and MG132 on E2F1 expression in HCT116 cells. […] For both qPCR and western blot assays, HCT116 cells were treated for 6 h with DMSO, 1 μM of MG132 (MG), 2 μM of CB-5083 (CB) or 4 μM of NMS-873 (NMS), n=2, **** indicates p<0.0001, *** indicates p<0.001, * indicates p<0.05 according to unpaired t-test.
To determine if the decreased expression of E2F1 target genes was caused by the downregulation of E2F1 levels due to ER stress, qPCR and western blot were used to evaluate E2F1 levels. […] The transcriptional activity of E2F1 can also be repressed through the formation of a complex with the tumor suppressor protein retinoblastoma (RB1) (FIG. 10B). Hyperphosphorylation of RB1 by cyclin-D-cyclin-dependent kinase 4/6 complex (CCND1-CDK4/6) inactivates RB1 and induces the release of the E2F1 from the complex. The newly released E2F1 leads to transcriptional activation of target genes. […] This downregulation of CCND1 and CDK4 was further confirmed by western blot (FIG. 10D). […] Furthermore, the downregulation of CCND1 occurred after the upregulation of ATF3 (FIG. 10F). ATF3 is a stress-inducible gene, which binds to the cyclin D1 promoter and represses its transcription. Therefore, the upregulation of ATF3 potentially contribute to the downregulation of CCND1.

E2F1 [2] = assay: E2F1 reporter assay; details: HCT116 transfected with pGL2-AN plasmid, 8 h treatment, luminescence
Description: (§1) FIGS. 10A-10F depicts p97 inhibition impairs the transcriptional activity of E2F1 by downregulating the CCND1/CDK complex. […] Data was analyzed using the g:Profiler website. Shading indicates the gene is a potential target of transcription factor c-Myb or E2F1. Blank indicates it is not a target gene. FIG. 10B depicts known regulatory network of the CCND1/CDK/RB1/E2F1 pathway. […] HCT116 cells were treated with 1 μM MG132, 2 μM CB-5083 or 4 μM of NMS-874 for 6 h. FIGS. 10E and 10F show transcriptional activity of E2F1 measured using E2F1 reporter assay. HCT116 cells were transfected with pGL2-AN plasmid (Addgene: 20950) for 24 h. Then cells were plated in 384 well plate and incubated for 16 h. The luminescence were detected after 8 h treatment with MG132, CB-5083 or NMS-873. Data are shown as mean±SD, n=3. f, qRT-PCR analysis of ATF3, DHFR and CCND1 RNAs following treatment with MG132, CB-5083 or NMS-874. HCT116 cells were treated for 2, 6 and 24 h using the same concentration as proteomic and western blot assay (n=4).
(§2) To determine if the decreased expression of E2F1 target genes was caused by the downregulation of E2F1 levels due to ER stress, qPCR and western blot were used to evaluate E2F1 levels. […] The transcriptional activity of E2F1 can also be repressed through the formation of a complex with the tumor suppressor protein retinoblastoma (RB1) (FIG. 10B). […]

HCT116 cells [3] = assay: TMT labeling proteomics of HCT116 cells treated with MG132, CB-5083 or NMS-873; details: for Log2 FC Baculoviral IAP repeat-containing protein 5 (BIRC5) / Log2 FC Cell division cycle protein 20 homolog (CDC20) / Log2 FC F-box only protein 5 (FBXO5) / Log2 FC G1/S-specific cyclin-D1 (CCND1) / Log2 FC Geminin (GMNN) / Log2 FC M-phase inducer phosphatase 2 (CDC25B) / Log2 FC Mitotic checkpoint serine/threonine-protein kinase BUB1 (BUB1) / Log2 FC Myc proto-oncogene protein (MYC) / Log2 FC Origin recognition complex subunit 6 (ORC6) / Log2 FC Ribonucleoside-diphosphate reductase subunit M2 (RRM2) / Log2 FC Securin (PTTG1): compound vs DMSO
Description: HCT116 cells were treated with 1 μM MG132, 2 μM CB-5083 or 4 μM of NMS-874 for 6 h or 24 h, n=2. […] M, C and N represents MG132, CB-5083 and NMS-873, respectively.
As a step toward understanding the differential effects of inhibiting p97 and the proteasome in cancer treatment, the effect of inhibiting p97 was compared to proteasome inhibition using tandem mass tag (TMT) 16-plexed labelling. This technique allowed for capture of alterations in the proteome after exposure to MG132 (proteasome inhibitor) and p97 inhibitors (CB-5083 and NMS-873). […] Samples were pooled together, fractionated into 8 fractions using high pH reverse chromatography, and analyzed using the highly accurate RTS-SPS-MS3 method.

HCT116 cells [4] = assay: Western blot of E2F1 related proteins and phos-4EBP1
Description: FIGS. 9B-9C show network of E2F1 (FIG. 9B) and cMyb (FIG. 9C).
as §1
To investigate whether the protein translation was inhibited by p97 or proteasome inhibitor, the phosphorylation state of eukaryotic translation initiation factor 4E-binding protein 1 (4E-BP1) was examined. Phosphorylation of 4E-BP1 serves to increase total protein translation. […] The effect of p97 inhibition on specific protein levels arises from a change in transcript levels. To examine how transcript levels might be affected, potential transcription factor binding sites (TFBSs) in the promoters of these 33 genes in the TRANSFAC database were examined. […] By examining protein-protein interaction networks related to E2F1 and MYB in the STRING database, 11 E2F1 interactors were found (FIG. 9B) and 11 MYB interactors (FIG. 9C). […] Therefore it was determined to further investigate the role of E2F1, rather than MYB, in cells responding to p97 and proteasome inhibition.
It was hypothesized that CCND1 and CDK4/6 upregulation by MG132 promotes RB1 hyperphosphorylation.

HCT116 cells [5] = assay: qRT-PCR analysis of ATF3, DHFR and CCND1 RNAs; details: HCT116, qPCR
Description: as §1, §2

Structure (SMILES): CC(C)C[C@@H](C=O)NC(=O)[C@H](CC(C)C)NC(=O)[C@H](CC(C)C)NC(=O)OCc1ccccc1 [MG132] (Cbz-Leu-Leu-Leu-aldehyde)
- E2F1 RNA levels (E2F1 [1]; qPCR, 1 μM MG132, 2 μM CB-5083, 4 μM NMS-873): strongly downregulated
- Protein level of E2F1 (E2F1 [1]; western blot): increased
- Transcriptional activity of E2F1 (E2F1 [2]): reduce the transcriptional activity of E2F1
- TAX1BP1 and p62 protein levels (HCT116 cells [3]; HCT116, 6 h and 24 h): upregulated
- Log2 FC Baculoviral IAP repeat-containing protein 5 (BIRC5) (HCT116 cells [3]; HCT116, 6 h treatment): 0.6
- Log2 FC Cell division cycle protein 20 homolog (CDC20) (HCT116 cells [3]; HCT116, 6 h treatment): 0.8
- Log2 FC F-box only protein 5 (FBXO5) (HCT116 cells [3]; HCT116, 6 h treatment): 0.2
- Log2 FC G1/S-specific cyclin-D1 (CCND1) (HCT116 cells [3]; HCT116, 6 h treatment): 0.2
- Log2 FC Geminin (GMNN) (HCT116 cells [3]; HCT116, 6 h treatment): 0.9
- Log2 FC M-phase inducer phosphatase 2 (CDC25B) (HCT116 cells [3]; HCT116, 6 h treatment): 0.3
- Log2 FC Mitotic checkpoint serine/threonine-protein kinase BUB1 (BUB1) (HCT116 cells [3]; HCT116, 6 h treatment): 1.2
- Log2 FC Myc proto-oncogene protein (MYC) (HCT116 cells [3]; HCT116, 6 h treatment): 1.2
- Log2 FC Origin recognition complex subunit 6 (ORC6) (HCT116 cells [3]; HCT116, 6 h treatment): 0.3
- Log2 FC Ribonucleoside-diphosphate reductase subunit M2 (RRM2) (HCT116 cells [3]; HCT116, 6 h treatment): 0.6
- Log2 FC Securin (PTTG1) (HCT116 cells [3]; HCT116, 6 h treatment): 1.4
- Four XBP1 activated genes/proteins (DNAJB11, SRPR, SRPRB, SYVN1), Log2FC (HCT116 cells [3]; HCT116, 24 h of treatment, p<0.05): not
- Log2 FC Baculoviral IAP repeat-containing protein 5 (BIRC5) (HCT116 cells [3]; HCT116, 24 h treatment): 1.0
- Log2 FC Cell division cycle protein 20 homolog (CDC20) (HCT116 cells [3]; HCT116, 24 h treatment): 1.1
- Log2 FC F-box only protein 5 (FBXO5) (HCT116 cells [3]; HCT116, 24 h treatment): 1.5
- Log2 FC G1/S-specific cyclin-D1 (CCND1) (HCT116 cells [3]; HCT116, 24 h treatment): 0.4
- Log2 FC Geminin (GMNN) (HCT116 cells [3]; HCT116, 24 h treatment): 1.4
- Log2 FC M-phase inducer phosphatase 2 (CDC25B) (HCT116 cells [3]; HCT116, 24 h treatment): −0.2
- Log2 FC Mitotic checkpoint serine/threonine-protein kinase BUB1 (BUB1) (HCT116 cells [3]; HCT116, 24 h treatment): 1.4
- Log2 FC Myc proto-oncogene protein (MYC) (HCT116 cells [3]; HCT116, 24 h treatment): 0.2
- Log2 FC Origin recognition complex subunit 6 (ORC6) (HCT116 cells [3]; HCT116, 24 h treatment): 1.0
- Log2 FC Ribonucleoside-diphosphate reductase subunit M2 (RRM2) (HCT116 cells [3]; HCT116, 24 h treatment): 1.2
- Log2 FC Securin (PTTG1) (HCT116 cells [3]; HCT116, 24 h treatment): −0.1
- CCND1 (cyclin D1) and CDK4/6 protein levels (HCT116 cells [3]; HCT116, proteomic analysis (TMT)): upregulated
- Phosphorylation of RB1 (HCT116 cells [4]; HCT116, 6 h, western blot): reduced phosphorylation of RB1
- Global protein translation (phosphorylation state of 4E-BP1) (HCT116 cells [4]; HCT116, 6 h of treatments): inhibit global protein translation
- p21 (CDKN1A) level (HCT116 cells [4]; HCT116, TMT and western blot): significantly upregulated
- mRNA levels of the E2F1 target gene DHFR (HCT116 cells [5]): reducing the mRNA level of DHFR
